Reference: patent US12459916B2, “Substituted indazoles useful for treatment and prevention of allergic and/or inflammatory diseases in animals” (Bayer Pharma Aktiengesellschaft, priority 2016, dated 2025)
Where two headings read alike, the source gives them in different places.

Assays:
[1] = target: canine IRAK4 (Canis lupus familiaris, UniProt A0A8I3S726); assay: Canine IRAK4 kinase assay (TR-FRET); assay type: biochemical
Procedure: The IRAK4-inhibitory activity of the present compounds on canine IRAK4 was measured in the Irak4 TR-FRET assay (TR-FRET=Time Resolved Fluorescence Resonance Energy Transfer) described hereinafter.
Recombinant fusion protein from N-terminal HIS (Poly-histidine) and canine Irak4, expressed in baculovirus-infected insect cells (Hi5, BTI-TN-5B1-4, cell line purchased from Invitrogen, catalogue No. B855-02) and purified via affinity chromatography, was used as enzyme. The substrate used for the kinase reaction was the biotinylated peptide biotin-Ahx-[…]
50 nl of the respective solution were pipetted into a black low-volume 384-well microtitre plate (Greiner Bio-One, Frickenhausen, Germany), 2 μl of a solution of Irak4 in assay buffer [50 mM HEPES pH 7.5, 5 mM MgCl2, 1.0 mM dithiothreitol, 30 μM activated sodium orthovanadate, 0.1% (w/v) of bovine gamma-globulin (BGG) 0.04% (v/v) nonidet-P40 (Sigma)] were added and the mixture was incubated for 15 min to allow prebinding of the substances to the enzyme prior to the kinase reaction. […] The concentration of the Irak4 was adjusted to the respective activity of the enzyme and set such that the assay was carried out in the linear range. Typical concentrations were in the order of about 0.1 nM.
The resulting mixture was incubated at 22° C. for 1 h to allow formation of a complex of the biotinylated phosphorylated substrate and the detection reagents. The amount of the phosphorylated substrate was then evaluated by measuring the resonance energy transfer from europium chelate-labelled anti-mouse-IgG antibody to streptavidin-XL665. […] The IC50 values were calculated by a 4-parameter fit.

[2] = system: secretion of TNF-α in THP-1 cells; assay: TNF-α secretion in THP-1 cells; assay type: cell-based; conditions: Homo sapiens, LPS 0.05 μg/ml, 17 h, read-out: IC50 with respect to the secretion of TNF-α in THP-1 cells
Procedure: This test is suited to test substances for their ability to inhibit secretion of TNF-α (tumour necrosis factor alpha) in THP-1 cells (human monocytic acute leukaemia cell line). TNF-α is a cytokine involved in inflammatory processes. In this test, TNF-α secretion is triggered by incubation with bacterial lipopolysaccharide (LPS).
The cells were incubated at room temperature for 15 min. 2-2.5 μl of 0.1 μg/ml LPS (Sigma, Escherichia coli 055:B5, Cat. No. L5418) dissolved in cell culture medium (final concentration 0.05 μg/ml) were then dispensed into each well. As neutral control, cells were treated with 0.05 μg/ml LPS and 1% DMSO and, as inhibitor control, with 1% DMSO only.
The amount of TNF-α was determined using the TNF-alpha HTRF Detection Kit (Cisbio, Cat. No. 62TNFPEB/C). To this end, 2 μl of the detection solution in each case, consisting of anti-TNF-α-XL665 conjugate and anti-TNF-α-cryptate conjugate dissolved in the reconstitution buffer in accordance with the manufacturer's instructions, were added for the HTRF (Homogeneous Time-Resolved Fluorescence) test. After the addition, the mixture was incubated either at room temperature for 3 h or at 4° C. overnight.
The activity of the substances is expressed as the ratio between neutral and inhibitor control in percent. The IC50 values were calculated using a 4-parameter fit.

[3] = IC50 in the IRAK4 canine kinase assay, values from two experiments, 1 mM ATP
[4] = recombinant canine IRAK4 enzyme, read-out: IC50 for the inhibition of canine IRAK4

canine IRAK4, sequence (A0A8I3S726 1-460): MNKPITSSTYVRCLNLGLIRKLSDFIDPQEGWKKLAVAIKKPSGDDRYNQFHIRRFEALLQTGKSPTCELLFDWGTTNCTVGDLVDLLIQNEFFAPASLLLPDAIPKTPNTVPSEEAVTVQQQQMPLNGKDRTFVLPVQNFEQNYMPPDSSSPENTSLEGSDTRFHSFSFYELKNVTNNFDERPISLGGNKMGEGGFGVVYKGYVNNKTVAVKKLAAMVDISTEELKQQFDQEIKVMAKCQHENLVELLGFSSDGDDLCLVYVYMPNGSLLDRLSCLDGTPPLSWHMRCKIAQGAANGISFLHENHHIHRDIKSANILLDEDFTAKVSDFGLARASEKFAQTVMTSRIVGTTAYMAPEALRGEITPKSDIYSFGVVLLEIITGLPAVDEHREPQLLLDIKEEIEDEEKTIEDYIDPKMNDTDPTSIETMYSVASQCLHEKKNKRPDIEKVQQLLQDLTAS

SMILES | IC50 [1, 3] | IC50 [1, 4] | IC50 [2]
Cc1nc(C(=O)Nc2cc3cn(CCC(C)(C)O)nc3cc2C(C)(C)O)ccc1F [Example 19, 5-Fluoro-N-[2-(3-hydroxy-3-methylbutyl)-6-(2-hydroxypropan-2-yl)-2H-indazol-5-yl]-6-methylpyridine-2-carboxamide] | 6.75 nM | 7.6 nM | 100 nM
CC(C)(O)CCn1cc2cc(NC(=O)c3cccc(C(F)F)n3)c(C(C)(C)O)cc2n1 [Example 13, 6-(Difluoromethyl)-N-[2-(3-hydroxy-3-methylbutyl)-6-(2-hydroxypropan-2-yl)-2H-indazol-5-yl]pyridine-2-carboxamide] | 2.68 nM | 2.2 nM | 100 nM
